# Test results: patent US5945508A, “Substance P treatment for immunostimulation” (priority 1997, dated 1999)
# Tests used:
# immune system organs = assay: Organ weight and total cell recovery; type: in vivo, C57B16 mice; set-up: Spleen Cell Number / Thymus Cell Number / LN Cell Number / BM Cell Number: scale not given here; Spleen Weight / Thymus Weight: unit not given here
# Experimental: (§1) At 24 hours after the last exposure, the animals were sacrificed and the effects of exposure on the immune system examined. Immune organs (spleen, thymus, blood, lymph nodes and bone marrow) were recovered and analyzed for effects on organ weight, total cell numbers, immune cell populations (by differentials), and lymphocyte subpopulations (by flow cytometry). Assays were also performed to examine the effects of exposure on immune function. […] Similar effects on immune cell subpopulations were also observed in lymph nodes. In the thymus it appeared that the immature CD4^+ CD8^+ cells were differentially lost due to exposure. […] However, these effects are prevented or ameliorated by treatment of the animals with Substance P.
# For each of the immune system organs (spleen, lymph nodes and thymus) the wet weight is determined after removal using a microbalance. After processing of the organs into single cell suspensions the cell numbers and viabilities are determined using trypan blue staining. Histochemical differentials are performed at this time. Cell numbers and viabilities are again determined after centrifugation of the cell suspensions through density gradients to obtain mononuclear cells.
# [1] = system: lymphocyte subpopulations; assay: Flow cytometric analyses (FACS); type: in vivo, C57B16 mice
# Experimental: as §1
# One- and two-color FACS analyses are performed using a Becton-Dickinson FACStar Plus flow cytometer. Cells are stained with the indicated monoclonal antibodies according to standard procedures (Harris et al., id). Cells alone and cells reacted with conjugated isotype control, irrelevant mAbs are used as controls. Data is presented as the percentage of cells staining positive for each individual mAb.
# [2] = JP-8 1000 mg/m^3 + SP, nSP (1 nM), CP or RP
compound,measurement,setting,value
"COc1ccccc1CN[C@H]1C2CCN(CC2)[C@H]1C(c1ccccc1)c1ccccc1 [CP, reference compound]",BM Cell Number,immune system organs; [2],22
same,LN Cell Number,immune system organs; [2],7.1
same,Spleen Cell Number,immune system organs; [2],7
same,Spleen Weight,immune system organs; [2],0.16
same,Thymus Cell Number,immune system organs; [2],75
same,Thymus Weight,immune system organs; [2],0.12
same,BM Cell Number,immune system organs; dose 0 (no JP-8) + SP or CP,29
same,LN Cell Number,immune system organs; dose 0 (no JP-8) + SP or CP,9.8
same,Spleen Cell Number,immune system organs; dose 0 (no JP-8) + SP or CP,16
same,Spleen Weight,immune system organs; dose 0 (no JP-8) + SP or CP,0.12
same,Thymus Cell Number,immune system organs; dose 0 (no JP-8) + SP or CP,50
same,Thymus Weight,immune system organs; dose 0 (no JP-8) + SP or CP,0.12
same,BM CD3 positive cells,[1]; [2],14%
same,BM CD4 positive cells,[1]; [2],7%
same,BM CD8 positive cells,[1]; [2],3%
same,BM CD45 positive cells,[1]; [2],41%
same,BM MAC1 positive cells,[1]; [2],26%
same,LN CD3 positive cells,[1]; [2],95%
same,LN CD4 positive cells,[1]; [2],35%
same,LN CD8 positive cells,[1]; [2],23%
same,PBL CD3 positive cells,[1]; [2],50%
same,PBL CD4 positive cells,[1]; [2],20%
same,PBL CD8 positive cells,[1]; [2],15%
same,PBL CD45 positive cells,[1]; [2],27%
same,PBL MAC1 positive cells,[1]; [2],6%
same,Spleen CD3 positive cells,[1]; [2],34%
same,Spleen CD4 positive cells,[1]; [2],16%
same,Spleen CD8 positive cells,[1]; [2],9%
same,Spleen CD45 positive cells,[1]; [2],26%
same,Spleen MAC1 positive cells,[1]; [2],10%
same,Thymus CD3 positive cells,[1]; [2],17%
same,Thymus DN cells,[1]; [2],12%
same,Thymus DP cells,[1]; [2],65%
same,Thymus SP4 cells,[1]; [2],17%
same,Thymus SP8 cells,[1]; [2],7%
same,BM CD3 positive cells,[1]; dose 0 (no JP-8) + SP or CP,16%
same,BM CD4 positive cells,[1]; dose 0 (no JP-8) + SP or CP,9%
same,BM CD8 positive cells,[1]; dose 0 (no JP-8) + SP or CP,7%
same,BM CD45 positive cells,[1]; dose 0 (no JP-8) + SP or CP,27%
same,BM MAC1 positive cells,[1]; dose 0 (no JP-8) + SP or CP,33%
same,LN CD3 positive cells,[1]; dose 0 (no JP-8) + SP or CP,49%
same,LN CD4 positive cells,[1]; dose 0 (no JP-8) + SP or CP,25%
same,LN CD8 positive cells,[1]; dose 0 (no JP-8) + SP or CP,12%
same,LN CD45 positive cells,[1]; dose 0 (no JP-8) + SP or CP,15%
same,LN MAC1 positive cells,[1]; dose 0 (no JP-8) + SP or CP,1%
same,PBL CD3 positive cells,[1]; dose 0 (no JP-8) + SP or CP,72%
same,PBL CD4 positive cells,[1]; dose 0 (no JP-8) + SP or CP,29%
same,PBL CD8 positive cells,[1]; dose 0 (no JP-8) + SP or CP,13%
same,PBL CD45 positive cells,[1]; dose 0 (no JP-8) + SP or CP,12%
same,PBL MAC1 positive cells,[1]; dose 0 (no JP-8) + SP or CP,7%
same,Spleen CD3 positive cells,[1]; dose 0 (no JP-8) + SP or CP,32%
same,Spleen CD4 positive cells,[1]; dose 0 (no JP-8) + SP or CP,21%
same,Spleen CD8 positive cells,[1]; dose 0 (no JP-8) + SP or CP,7%
same,Spleen CD45 positive cells,[1]; dose 0 (no JP-8) + SP or CP,24%
same,Spleen MAC1 positive cells,[1]; dose 0 (no JP-8) + SP or CP,3%
same,Thymus CD3 positive cells,[1]; dose 0 (no JP-8) + SP or CP,18%
same,Thymus DN cells,[1]; dose 0 (no JP-8) + SP or CP,13%
same,Thymus DP cells,[1]; dose 0 (no JP-8) + SP or CP,75%
same,Thymus SP4 cells,[1]; dose 0 (no JP-8) + SP or CP,12%
same,Thymus SP8 cells,[1]; dose 0 (no JP-8) + SP or CP,3%
"COc1ccccc1CC(=N)N1C[C@@H]2C(=O)CCC(c3ccccc3)(c3ccccc3)[C@@H]2C1 [RP, reference compound]",BM Cell Number,immune system organs; [2],27
same,LN Cell Number,immune system organs; [2],6.8
same,Spleen Cell Number,immune system organs; [2],37
same,Spleen Weight,immune system organs; [2],0.10
same,Thymus Cell Number,immune system organs; [2],72
same,Thymus Weight,immune system organs; [2],0.03
same,BM CD3 positive cells,[1]; [2],12%
same,BM CD4 positive cells,[1]; [2],6%
same,BM CD8 positive cells,[1]; [2],5%
same,BM CD45 positive cells,[1]; [2],42%
same,BM MAC1 positive cells,[1]; [2],10%
same,LN CD3 positive cells,[1]; [2],96%
same,LN CD4 positive cells,[1]; [2],41%
same,LN CD8 positive cells,[1]; [2],29%
same,LN CD45 positive cells,[1]; [2],18%
same,LN MAC1 positive cells,[1]; [2],1%
same,PBL CD3 positive cells,[1]; [2],71%
same,PBL CD4 positive cells,[1]; [2],18%
same,PBL CD8 positive cells,[1]; [2],10%
same,PBL CD45 positive cells,[1]; [2],38%
same,PBL MAC1 positive cells,[1]; [2],9%
same,Spleen CD3 positive cells,[1]; [2],47%
same,Spleen CD4 positive cells,[1]; [2],16%
same,Spleen CD8 positive cells,[1]; [2],5%
same,Spleen CD45 positive cells,[1]; [2],39%
same,Spleen MAC1 positive cells,[1]; [2],1%
same,Thymus CD3 positive cells,[1]; [2],16%
same,Thymus DN cells,[1]; [2],10%
same,Thymus DP cells,[1]; [2],70%
same,Thymus SP4 cells,[1]; [2],12%
same,Thymus SP8 cells,[1]; [2],8%
nSP: 1 nanomolar substance P,BM Cell Number,immune system organs; [2],31
same,LN Cell Number,immune system organs; [2],10.8
same,Spleen Cell Number,immune system organs; [2],58
same,Spleen Weight,immune system organs; [2],0.11
same,Thymus Cell Number,immune system organs; [2],78
same,Thymus Weight,immune system organs; [2],0.04
same,BM CD3 positive cells,[1]; [2],13%
same,BM CD4 positive cells,[1]; [2],10%
same,BM CD8 positive cells,[1]; [2],3%
same,BM CD45 positive cells,[1]; [2],43%
same,BM MAC1 positive cells,[1]; [2],16%
same,LN CD3 positive cells,[1]; [2],95%
same,LN CD4 positive cells,[1]; [2],42%
same,LN CD8 positive cells,[1]; [2],25%
same,LN CD45 positive cells,[1]; [2],23%
same,LN MAC1 positive cells,[1]; [2],0%
same,PBL CD3 positive cells,[1]; [2],78%
same,PBL CD4 positive cells,[1]; [2],25%
same,PBL CD8 positive cells,[1]; [2],8%
same,PBL CD45 positive cells,[1]; [2],29%
same,PBL MAC1 positive cells,[1]; [2],2%
same,Spleen CD3 positive cells,[1]; [2],60%
same,Spleen CD4 positive cells,[1]; [2],15%
same,Spleen CD8 positive cells,[1]; [2],5%
same,Spleen CD45 positive cells,[1]; [2],41%
same,Spleen MAC1 positive cells,[1]; [2],1%
same,Thymus CD3 positive cells,[1]; [2],25%
same,Thymus DN cells,[1]; [2],7%
same,Thymus DP cells,[1]; [2],69%
same,Thymus SP4 cells,[1]; [2],16%
same,Thymus SP8 cells,[1]; [2],7%
